ChEMBL document CHEMBL2074098, “Estradiol 17 beta-D-glucuronide is a high-affinity substrate for oatp organic anion transporter” (Am J Physiol, 1996)

B1: Solute carrier organic anion transporter family member 1A1 (Rattus norvegicus) (protein)
chain: MEETEKKIATQEGRLFSKMKVFLLSLTCACLTKSLSGVYMNSMLTQIERQFDISTSVAGLINGSFEIGNLFFIVFVSYFGTKLHRPVVIGIGCVIMGLGCLLMSLPHFFMGRYEYETTISPTGNLSSNSFLCMENRTQTLKPTQDPAECVKEMKSLMWICVMVGNIIRGIGETPIVPLGISYIEDFAKSENSPLYIGILEMGKVAGPIFGLLLGSYCAQIYVDIGSVNTDDLTITPSDTRWVGAWWIGFLVCAGVNILTSIPFFFLPKALPKKGQQENVAVTKDGKVEKYGGQAREENLGITKDFLTFMKRLFCNPIYMLFILTSVLQVNGFINKFTFLPKYLEQQYGKSTAEAIFLIGVYSLPPICLGYLIGGFIMKKFKITVKKAAYLAFCLSVFEYLLFLCHFMLTCDNAAVAGLTTSYKGVQHQLHVESKVLADCNTRCSCSTNTWDPVCGDNGVAYMSACLAGCKKFVGTGTNMVFQDCSCIQSLGNSSAVLGLCKKGPECANRLQYFLILTIIISFIYSLTAIPGYMVFLRCVKSEEKSLGVGLHTFCIRVFAGIPAPVYFGALIDRTCLHWGTLKCGQRGACRMYDINSFRHIYLGLPIALRGSSYLPAFFILILMRKFQFPGDIDSSATDHTEMMLGEKESEHTDVHGSPQVENDGELKTKL

Tests used:
[1] = target: T1, Solute carrier organic anion transporter family member 1A1 (Rattus norvegicus, UniProt P46720); test: TP_TRANSPORTER: inhibition of E217betaG uptake in Oatp1-expressing HeLa cells; type: functional, cell-based
T1 sequence (P46720 whole entry): B1 chain

[2] = substrate: C[C@]12CC[C@@H]3c4ccc(O)cc4CC[C@H]3[C@@H]1CC[C@@H]2O[C@@H]1O[C@H](C(=O)O)[C@@H](O)[C@H](O)[C@H]1O; test: TP_TRANSPORTER: uptake in Oatp1-expressing HeLa cells; type: functional, cell-based

Molecule	Ki [1] [µM]	Km [2] [µM]
C[C@]12CC[C@@H](OS(=O)(=O)O)C[C@@H]1CC[C@@H]1[C@@H]2CC[C@]2(C)C(=O)CC[C@@H]12	2.4	–
C[C@]12CC[C@@H]3c4ccc(OS(=O)(=O)O)cc4CC[C@H]3[C@@H]1CC[C@@H]2O	1.1	–
C[C@]12CC[C@@H]3c4ccc(O)cc4CC[C@H]3[C@@H]1C[C@@H](O)[C@@H]2O [ESTRIOL]	9.8	–
C[C@]12CC[C@H]3[C@@H](CCC4=CC(=O)CC[C@@]43C)[C@@H]1CC[C@@H]2O[C@@H]1O[C@H](C(=O)O)[C@@H](O)[C@H](O)[C@H]1O	3.8	–
C#C[C@]1(OS(=O)(=O)O)CC[C@H]2[C@@H]3CCc4cc(O)ccc4[C@H]3CC[C@@]21C	1.3	–
C[C@]12C[C@H](O)[C@H]3[C@@H](CCC4=CC(=O)CC[C@@]43C)[C@@H]1CC[C@@H]2C(=O)COS(=O)(=O)O	1.6	–
C[C@]12CC[C@@H]3c4ccc(OS(=O)(=O)O)cc4CC[C@H]3[C@@H]1CCC2=O [ESTRONE SULFURIC ACID]	1.3	–
C[C@]12CC[C@@H]3c4ccc(O)cc4CC[C@H]3[C@@H]1CCC2=O [ESTRONE]	15.7	–
C[C@]12CC[C@@H]3c4ccc(O)cc4CC[C@H]3[C@@H]1CC[C@@H]2O [ESTRADIOL]	4.7	–
C[C@]12CC[C@@H]3c4ccc(O[C@@H]5O[C@H](C(=O)O)[C@@H](O)[C@H](O)[C@H]5O)cc4CC[C@H]3[C@@H]1CC[C@@H]2O	9.7	–
C[C@]12CC[C@@H]3c4ccc(O)cc4CC[C@H]3[C@@H]1CC[C@@]2(O)CC(=O)O	> 200	–
CC(=O)O[C@@H]1CC[C@@]2(C)[C@@H](CC[C@@H]3[C@@H]2CC[C@]2(C)C(=O)CC[C@@H]32)C1 [ANDROSTERONE ACETATE]	76.2	–
C[C@]12CC[C@H]3[C@@H](CCC4=CC(=O)CC[C@@]43C)[C@@H]1CC[C@@H]2O [TESTOSTERONE]	5.4	–
C[C@]12C[C@H](O)[C@H]3[C@@H](CCC4=CC(=O)CC[C@@]43C)[C@@H]1CC[C@@H]2C(=O)CO [CORTICOSTERONE]	5.3	–
C[C@]12CC[C@@H](O)C[C@@H]1CC[C@@H]1[C@@H]2CC[C@]2(C)C(=O)CC[C@@H]12 [ANDROSTERONE]	10.6	–
B1	–	3.2
